One may read the IC50 as the concentration needed to halve the response being measured. By melting point is commonly meant the temperature, or range, at which the solid turns liquid.

These results are taken from US20230234920A1, “Azirine Containing Compounds as Anti-Angiogenesis Agents and a Process for the Preparation Thereof” (COUNCIL OF SCIENTIFIC & INDUSTRIAL RESEARCH, priority 2020, published 2023).

One data set has as its system HUVECs. The experiment in a line: Capillary-like tube formation assay (tubulogenesis). In kind it is cell-based, human. The conditions noted are these: for IC50: Homo sapiens, HUVEC, endothelial tubule network assay, anti-angiogenic activity, read-out: IC50 value; for tubule formation: 6 h. A digest of the protocol:
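HUVECs seeded on Matrigel (regular or reduced growth factor) in incomplete ECM basal medium, treated with compound for 6 h; VEGF 50 ng/mL positive and sunitinib 50 nM negative controls. Calcein-AM-stained tubules imaged at 10× and tubule length expressed as % of 0.1% DMSO vehicle.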

The test system of the next data set is HCT116 colon tumor. The data set can be described thus: HCT116 colon tumor model in nude mice. In kind it is in vivo. As for the experimental part: FIG. 12 represents Compound 1 inhibited tumor growth in vivo. Tumor sizes were recorded every alternate day by Vernier caliper measurements and calculated as [4/3*[…]*(length/2)*(width/2)]. (A) Nude mice with induced HCT116 tumor were given vehicle to the control group, sunitinib at (40 mg/kg) as a standard drug given orally and Compound 1 at (25 mg/kg) through IP route for 21 days and tumor regression was calculated for all groups. (B) Nude Mice with induced HCT116 colon tumor were given both, sunitinib and Compound 1 at (25 mg/kg) intra-muscularly for 15 days after attaining a tumor size of 100 mm^3, tumor volume reduction for treated groups were calculated and compared with control. Data are expressed as means±S.E.M. (6 mice/group) with significant difference compared with control at p<0.0001.
HCT 116 (Human colon cancer cell line) cells were trypsinised and the pellet was dissolved in ice chilled 1×PBS. HCT 116 cells suspension to a concentration of (1*10^6) cells in 50 μL PBS solution, were left on ice with occasional agitation. Mice were anaesthetized with ketamine: xylazine (100:10 mg/kg), abdominal side area was shaved and sterilized using 70% ethanol. 50 μL of cell suspension was injected slowly subcutaneously to all the mice. After 2 days, booster dose of tumor cells was injected to all mice as performed previously. The growth of the tumor was measured by using vernier caliper on day 2, 4, 6, 8, 10, 12, 14, 16 18, 20, 23 and presented in the form of tumor volume (mm^3)=[4/3*π*(long axis/2)*(short axis/2)]. After attaining a volume of 100 mm^3 of tumor size, all mice were distributed equally (n=6−8) in 3 groups of controls received vehicle (Olive oil). Sutent (25 mg/kg) as a positive control was given orally and Compound 1 (25 mg/kg) dissolved in olive oil was injected intra-muscularly for 15 days and the tumor size regression was measured on every alternate day as described previously. Post 15 days of treatment, mice from all groups were sacrificed and tumor was excised out and processed further for immunohistochemistry and molecular analysis.

In the next data set the test system is chick CAM. The experiment in a line: CAM (chick chorio-allantoic membrane) assay. The class given is in vivo. The conditions noted are these: 2 μM. As for the experimental part: (A) Chick CAM assays were used to observe the effect of Compound 1 on angiogenesis in vivo. 1 mm^2 window was made in 8 days old chicken eggs to expose the CAM, and a gelatin disc ([…]) treated with vehicle (0.1% DMSO), sunitinib and Compound 1 at a indicated concentrations were placed on the CAM surface. Post 4 days of incubation, the discs and associated CAM were photographed and excised out, for hemoglobin estimation by drapkin's reagent. (B) Blood vessel density was calculated and Hb. concentration was measured and representative graph was plotted for the control and treatment group and data are represented as mean±SEM with significant difference from control at *p<0.05, **p<0.01 and ***p<0.001.
The eggs were incubated horizontally for 3 days at 37° C. in a 60% humidified atmosphere, using a hybridization incubator (combi-SV 12) with one hour scheduled rotation. Post 3 days of incubation, 2-3 mL of albumin was aspirated from the acute pole of the egg to create false air sac directly over the CAM. Post fertilization (Day 8), a fine blade was used to make an approximate 0.5 cc square incision on the eggshell under sterile conditions and the eggshell window fragment was removed to access the CAM beneath. A piece of gelatin sponge embedded in Compound 1 (500 nM and 250 nM) and sunitinib (2 μM) individually were placed on the CAM of the chicken embryo and incubated for 12 days. Sterile parafilm tape was used to seal back the window and the eggs were further incubated without the rotation setting. After 12 days of incubation the CAM integration was assessed by visual inspection and photographed with a digital camera (Canon EOS); the CAM membrane along with gelatin sponge were harvested and its hemoglobin (Hb.) estimation was done by Drabkin's method according to the manufacturer's protocol (Sigma, St. Louis, Mo.). Absorbance was measured at 540 nm and hemoglobin concentration was calculated.

`CCOC(=O)C1N=C1CCc1ccc(OC)c(OC)c1` (stereo not shown) [Compound 34, Ethyl 3-(3,4-dimethoxyphenethyl)-2H-azirine-2-carboxylate]: the melting point is 55 to 57 °C. Moreover, the IC50 with HUVECs is 0.25 µM.

Take `CCOC(=O)C1N=C1/C=C/c1ccc(N(C)C)cc1` (stereo not shown) [Compound 46, Ethyl (E)-3-(4-(dimethylamino)styryl)-2H-azirine-2-carboxylate]: the melting point lay within 119 to 121 °C. For the same compound, in the data set with HUVECs, the half-maximal inhibitory concentration (IC50) was found to be 0.5 µM.

Sunitinib Maleate [reference compound]: the “growth of HCT116 cells xenografts” value in the data set on HCT116 colon tumor (25 mg/kg, 15 days) is on record as “powerful inhibitory effect”. For the same compound, the tumor volume result in the data set with HCT116 colon tumor (40 mg/kg orally for 21 days, vs vehicle) is “progressive significant decrease in tumor volume”. Besides, the tumor reduction with HCT116 colon tumor (in comparison to vehicle treated control group, end of experiment) is 54.58%. Moreover, the values for the tubule formation with HUVECs (20 nM) and in the data set on HUVECs (50 nM) were 40% and 25%, respectively. In the data set on chick CAM, the hemoglobin content is 100 µg/mL.
